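How tested: cells in 96-well plates exposed to compound for 48 hours at five concentrations. At the GI50, growth is halved.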 Active and inactive are the calls of the source. Cut-off read from the data, not from the text of the source: active = GI50 up to about 1.1 µM and inactive = higher.
How the values were obtained:
Assay in all cases: NCI-60 cell line screen, 48 h
786-0 = test system: 786-0
SR = test system: SR
LOX IMVI = test system: LOX IMVI
A549 = test system: A549
ACHN = test system: ACHN
NCI-H23 = test system: NCI-H23
NCI-H226 = test system: NCI-H226
EKVX = test system: EKVX
HCC 2998 = test system: HCC 2998
NCI-H460 = test system: NCI-H460
U-251 = test system: U-251
OVCAR-5 = test system: OVCAR-5
UACC-257 = test system: UACC-257
OVCAR-8 = test system: OVCAR-8
IGROV-1 = test system: IGROV-1
HL-60 = test system: HL-60
UO-31 = test system: UO-31
RXF 393 = test system: RXF 393

Row | Compound | GI50 (786-0) | GI50 (SR) | GI50 (LOX IMVI) | GI50 (A549) | GI50 (ACHN) | GI50 (NCI-H23) | GI50 (NCI-H226) | GI50 (EKVX) | GI50 (HCC 2998) | GI50 (NCI-H460) | GI50 (U-251) | GI50 (OVCAR-5) | GI50 (UACC-257) | GI50 (OVCAR-8) | GI50 (IGROV-1) | GI50 (HL-60) | GI50 (UO-31) | GI50 (RXF 393)
1 | O=C1OC2C=CC1C1(CCOC1=O)C2 (stereo not given) | > 100 µM (inactive) | > 100 µM (inactive) | > 100 µM (inactive) | > 100 µM (inactive) | > 100 µM (inactive) | > 100 µM (inactive) | > 100 µM (inactive) | > 100 µM (inactive) | > 100 µM (inactive) | > 100 µM (inactive) | > 100 µM (inactive) | > 100 µM (inactive) | > 100 µM (inactive) | > 100 µM (inactive) | 48.8 µM (inactive) | > 100 µM (inactive) | > 100 µM (inactive) | 
2 | COc1ccc2oc(-c3ccc(OC)c(OC)c3OC)cc(=O)c2c1 | 72.4 µM (inactive) |  | 46.8 µM (inactive) | 36.6 µM (inactive) | 61.8 µM (inactive) | 43.3 µM (inactive) | 10.5 µM (inactive) | 33.1 µM (inactive) | 52.7 µM (inactive) |  |  | 28.4 µM (inactive) | 55.6 µM (inactive) |  | 83.9 µM (inactive) | 18.6 µM (inactive) |  | 22.4 µM (inactive)
3 | CCOC(=O)C1C(=O)c2cccc(OC)c2C2COC(=O)N12 (stereo not given) | > 100 µM (inactive) | > 100 µM (inactive) | > 100 µM (inactive) | > 100 µM (inactive) | > 100 µM (inactive) | > 100 µM (inactive) | > 100 µM (inactive) | > 100 µM (inactive) | > 100 µM (inactive) | > 100 µM (inactive) | > 100 µM (inactive) | > 100 µM (inactive) | > 100 µM (inactive) | > 100 µM (inactive) | > 100 µM (inactive) | > 100 µM (inactive) | > 100 µM (inactive) | > 100 µM (inactive)
4 | CO[C@@H]1C=C[C@@]23c4cc5c(cc4C(=O)O[C@H]2CN(C)[C@H]3C1)OCO5 | > 100 µM (inactive) | > 100 µM (inactive) | > 100 µM (inactive) | > 100 µM (inactive) | > 100 µM (inactive) | > 100 µM (inactive) |  | > 100 µM (inactive) | > 100 µM (inactive) | > 100 µM (inactive) | > 100 µM (inactive) | > 100 µM (inactive) | > 100 µM (inactive) | > 100 µM (inactive) | > 100 µM (inactive) | > 100 µM (inactive) | > 100 µM (inactive) | > 100 µM (inactive)
5 | COC(=O)/C(=N\N)C(C(=O)C(=O)Nc1nnc(S)[nH]1)c1nc2ccc([N+](=O)[O-])cc2nc1O (stereo not given) | > 100 µM (inactive) | > 100 µM (inactive) | > 100 µM (inactive) | > 100 µM (inactive) | > 100 µM (inactive) | > 100 µM (inactive) | > 100 µM (inactive) | > 100 µM (inactive) | > 100 µM (inactive) | > 100 µM (inactive) | > 100 µM (inactive) | > 100 µM (inactive) | > 100 µM (inactive) | > 100 µM (inactive) | > 100 µM (inactive) | > 100 µM (inactive) | > 100 µM (inactive) | > 100 µM (inactive)
6 | COc1ccccc1/C=C(\NC(=O)c1ccccc1)c1nc2ccc(Cl)cc2[nH]1 | 27.4 µM (inactive) |  | 37.2 µM (inactive) | 19.6 µM (inactive) | 21.5 µM (inactive) | 22.2 µM (inactive) | 23.3 µM (inactive) | 29.5 µM (inactive) |  | 33.8 µM (inactive) | 30.5 µM (inactive) | 38 µM (inactive) | 32.7 µM (inactive) | 22.8 µM (inactive) | 26.9 µM (inactive) |  | 18 µM (inactive) | 22.4 µM (inactive)
7 | Nc1nc[n+](Cc2ccccc2)c2ncn(Cc3ccccc3)c12 | > 100 µM (inactive) | 35.3 µM (inactive) | > 100 µM (inactive) | > 100 µM (inactive) | > 100 µM (inactive) | 97.7 µM (inactive) | > 100 µM (inactive) | > 100 µM (inactive) | 15.5 µM (inactive) | > 100 µM (inactive) | 45.7 µM (inactive) | > 100 µM (inactive) | 63.8 µM (inactive) | > 100 µM (inactive) | > 100 µM (inactive) | 32.3 µM (inactive) | 39.3 µM (inactive) | 20.2 µM (inactive)
8 | C[N+](C)(C)CC(=O)N/N=C(/Cc1nc2ccc(Cl)cc2nc1O)C1=NS(=O)(=O)c2cc(S(N)(=O)=O)c(Cl)cc2N1 | > 100 µM (inactive) | > 100 µM (inactive) |  | > 100 µM (inactive) | > 100 µM (inactive) | > 100 µM (inactive) |  | 6.75 µM (inactive) | > 100 µM (inactive) | > 100 µM (inactive) |  | > 100 µM (inactive) | > 100 µM (inactive) | > 100 µM (inactive) | > 100 µM (inactive) | > 100 µM (inactive) | > 100 µM (inactive) | > 100 µM (inactive)
9 | O=C(N/N=C(/c1nc2ccc([N+](=O)[O-])cc2[nH]c1=O)C(O)c1ccc([N+](=O)[O-])cc1)c1ccncc1 (stereo not given) | > 100 µM (inactive) | > 100 µM (inactive) | > 100 µM (inactive) | 69 µM (inactive) | 39.7 µM (inactive) | > 100 µM (inactive) | > 100 µM (inactive) | > 100 µM (inactive) | 41.6 µM (inactive) | > 100 µM (inactive) | > 100 µM (inactive) | > 100 µM (inactive) | > 100 µM (inactive) | > 100 µM (inactive) | > 100 µM (inactive) | 26.4 µM (inactive) | > 100 µM (inactive) | 
10 | N=C1SCCS1 | > 100 µM (inactive) |  | > 100 µM (inactive) | > 100 µM (inactive) | > 100 µM (inactive) | > 100 µM (inactive) | > 100 µM (inactive) | > 100 µM (inactive) | > 100 µM (inactive) | > 100 µM (inactive) | > 100 µM (inactive) | > 100 µM (inactive) | > 100 µM (inactive) | > 100 µM (inactive) | > 100 µM (inactive) | > 100 µM (inactive) | > 100 µM (inactive) | 
11 | CCOc1ccccc1NC(=O)C(=O)C(C(=O)c1ccc2ccccc2c1)C1OC(=O)c2ccccc21 (stereo not given) | 7.78 µM (inactive) |  | 12.5 µM (inactive) | 21.4 µM (inactive) | 29.2 µM (inactive) | 7.64 µM (inactive) | 1.82 µM (inactive) | 22.2 µM (inactive) | 10.7 µM (inactive) | 6.68 µM (inactive) | 6.64 µM (inactive) | 21.2 µM (inactive) | 13.7 µM (inactive) | 8.49 µM (inactive) | 13 µM (inactive) | 10 µM (inactive) | 12.7 µM (inactive) | 2.26 µM (inactive)
12 | O=c1[nH]nc(-c2ccccc2)c(-c2ccccc2)c1-n1nc(-c2ccccc2)c2ccccc2c1=O | > 100 µM (inactive) | 52.1 µM (inactive) |  | 83.4 µM (inactive) | 50.8 µM (inactive) | > 100 µM (inactive) | > 100 µM (inactive) | > 100 µM (inactive) | > 100 µM (inactive) | 90.6 µM (inactive) | 50.8 µM (inactive) | > 100 µM (inactive) | > 100 µM (inactive) | 92 µM (inactive) | > 100 µM (inactive) |  | 71.8 µM (inactive) | 
13 | [O-][n+]1c2cc(CBr)c(CBr)cc2[n+]([O-])c2c(O)cccc21 | 1.58 µM (inactive) | 0.248 µM (active) | 1.35 µM (inactive) | 3.1 µM (inactive) | 1.81 µM (inactive) | 2.72 µM (inactive) | 6.61 µM (inactive) | 6.05 µM (inactive) |  | 1.91 µM (inactive) | 2.9 µM (inactive) | 1.95 µM (inactive) | 2.38 µM (inactive) | 1.82 µM (inactive) | 4.02 µM (inactive) | 0.388 µM (active) | 1.93 µM (inactive) | 1.76 µM (inactive)
14 | O=C1/C(=C\c2ccccc2)c2ccccc2N1/N=C\c1ccccc1 | 81.5 µM (inactive) |  | > 100 µM (inactive) | 76.2 µM (inactive) | > 100 µM (inactive) | > 100 µM (inactive) | > 100 µM (inactive) | 23.2 µM (inactive) | 50.4 µM (inactive) | > 100 µM (inactive) | > 100 µM (inactive) | > 100 µM (inactive) | > 100 µM (inactive) | > 100 µM (inactive) | > 100 µM (inactive) |  | > 100 µM (inactive) | 
15 | C=C(Br)C(C)(Br)CCC(Br)C(C)(C)Br (stereo not given) | 22.5 µM (inactive) | 13.4 µM (inactive) | 16.5 µM (inactive) | 80.2 µM (inactive) | 57.7 µM (inactive) | 36.4 µM (inactive) | 35.3 µM (inactive) |  |  | 33.7 µM (inactive) | 17.1 µM (inactive) | 35.5 µM (inactive) | 36.8 µM (inactive) | 17.5 µM (inactive) | 19.7 µM (inactive) | 23.1 µM (inactive) | 60.7 µM (inactive) | 46.6 µM (inactive)
16 | CCCCCCCCCCCCCC(=O)OCC1OC(OC)C(NC(=O)N(CCCl)N=O)C(O)C1O (stereo not given) | 2.59 µM (inactive) | 3.71 µM (inactive) | 10.1 µM (inactive) | 15.6 µM (inactive) | 10.5 µM (inactive) | 12.9 µM (inactive) | 24.8 µM (inactive) |  | 28.1 µM (inactive) | 4.93 µM (inactive) | 12.6 µM (inactive) | 25.6 µM (inactive) | 14.2 µM (inactive) | 21.8 µM (inactive) | 29.6 µM (inactive) |  | 22.6 µM (inactive) | 16.4 µM (inactive)
17 | c1ccc(SC(CCCCC(Sc2ccccc2)Sc2ccccc2)Sc2ccccc2)cc1 | > 100 µM (inactive) | > 100 µM (inactive) | > 100 µM (inactive) | > 100 µM (inactive) | > 100 µM (inactive) | > 100 µM (inactive) |  | > 100 µM (inactive) | > 100 µM (inactive) | > 100 µM (inactive) | > 100 µM (inactive) |  | > 100 µM (inactive) | > 100 µM (inactive) |  | > 100 µM (inactive) | > 100 µM (inactive) | > 100 µM (inactive)

— ChEMBL document CHEMBL1201862, “PubChem BioAssay data set” (2004)
